Tested on: MV-4-11 cells
Test: Gene expression microarray analysis (Affymetrix PrimeView) and GSEA
Type: cell-based, human
Parameters: RFU PODN (11730768_x_at) / Fold change /veh PODN (11730768_x_at) / RFU LINC00158 (11744669_a_at) / Fold change /veh LINC00158 (11744669_a_at) / RFU DUSP10 (11751237_a_at) / Fold change /veh DUSP10 (11751237_a_at) / RFU ID3 (11757404_x_at) / Fold change /veh ID3 (11757404_x_at) / RFU PLEKHG5 (11737974_s_at) / Fold change /veh PLEKHG5 (11737974_s_at) / RFU LRRC4B (11730491_at) / Fold change /veh LRRC4B (11730491_at) / RFU GIMAP4 (11747438_a_at) / Fold change /veh GIMAP4 (11747438_a_at) / RFU KRT8 (11758183_x_at) / Fold change /veh KRT8 (11758183_x_at) / RFU CNN1 (11734310_a_at) / Fold change /veh CNN1 (11734310_a_at) / RFU VPS37D (11726825_at) / Fold change /veh VPS37D (11726825_at) / RFU C10orf10 (11716522_x_at) / Fold change /veh C10orf10 (11716522_x_at) / RFU KIR2DL2 /// KIR2DL4 /// KIR2DL5A /// KIR2DL5B /// KIR2DS1 /// KIR2DS2 /// KIR2DS3 /// KIR2DS4 /// KIR3DL3 /// KIR3DL3 /// KIR3DS1 (11738374_at) / Fold change /veh KIR2DL2 /// KIR2DL4 /// KIR2DL5A /// KIR2DL5B /// KIR2DS1 /// KIR2DS2 /// KIR2DS3 /// KIR2DS4 /// KIR3DL3 /// KIR3DL3 /// KIR3DS1 (11738374_at) / RFU C1QL1 (11718748_at) / Fold change /veh C1QL1 (11718748_at) / RFU TMPRSS4 (11747572_a_at) / Fold change /veh TMPRSS4 (11747572_a_at) / RFU HAMP (11756126_x_at) / Fold change /veh HAMP (11756126_x_at) / RFU RNFT2 (11725882_a_at) / Fold change /veh RNFT2 (11725882_a_at) / RFU NR4A2 (11747474_a_at) / Fold change /veh NR4A2 (11747474_a_at) / RFU ABCC12 (11746883_a_at) / Fold change /veh ABCC12 (11746883_a_at) / RFU TMEM136 (11760407_x_at) / Fold change /veh TMEM136 (11760407_x_at) / RFU CLDN22 /// WWC2 (11732394_at) / Fold change /veh CLDN22 /// WWC2 (11732394_at) / RFU HLA-DPB1 (11760878_x_at) / Fold change /veh HLA-DPB1 (11760878_x_at) / RFU SPINT1 (11716480_a_at) / Fold change /veh SPINT1 (11716480_a_at) / RFU GAP43 (11754022_s_at) / Fold change /veh GAP43 (11754022_s_at) / RFU A4GNT (11735810_at) / Fold change /veh A4GNT (11735810_at) / RFU PRB3 (11715151_x_at) / Fold change /veh PRB3 (11715151_x_at) / RFU TUBB4B (11761932_at) / Fold change /veh TUBB4B (11761932_at) / RFU CAPN14 (11732068_a_at) / Fold change /veh CAPN14 (11732068_a_at) / RFU TMCC2 (11721928_a_at) / Fold change /veh TMCC2 (11721928_a_at) / RFU IRGQ (11745062_a_at) / Fold change /veh IRGQ (11745062_a_at) / RFU FAM174B (11720279_a_at) / Fold change /veh FAM174B (11720279_a_at) / RFU TMPRSS4 (11748680_a_at) / Fold change /veh TMPRSS4 (11748680_a_at) / RFU FAM212B (11763350_a_at) / Fold change /veh FAM212B (11763350_a_at) / RFU PLEKHG5 (11743358_a_at) / Fold change /veh PLEKHG5 (11743358_a_at) / RFU ZSCAN30 (11745921_a_at) / Fold change /veh ZSCAN30 (11745921_a_at) / RFU CMKLR1 (11741424_a_at) / Fold change /veh CMKLR1 (11741424_a_at) / RFU LOC101060620 /// MAPK8IP1 (11723275_at) / Fold change /veh LOC101060620 /// MAPK8IP1 (11723275_at) / RFU SPTSSB (11747773_x_at) / Fold change /veh SPTSSB (11747773_x_at) / RFU PRSS12 (11739890_at) / Fold change /veh PRSS12 (11739890_at) / RFU BIN1 (11741810_x_at) / Fold change /veh BIN1 (11741810_x_at) / RFU WNT11 (11732464_a_at) / Fold change /veh WNT11 (11732464_a_at) / RFU C10orf10 (11716521_a_at) / Fold change /veh C10orf10 (11716521_a_at) / RFU C5orf56 (11738089_at) / Fold change /veh C5orf56 (11738089_at) / RFU CYB561 (11721691_x_at) / Fold change /veh CYB561 (11721691_x_at) / RFU ANKRD19P (11752326_a_at) / Fold change /veh ANKRD19P (11752326_a_at) / RFU OR2T12 /// OR2T33 /// OR2T8 (11738714_s_at) / Fold change /veh OR2T12 /// OR2T33 /// OR2T8 (11738714_s_at) / RFU VCAN (11748164_a_at) / Fold change /veh VCAN (11748164_a_at) / RFU JSRP1 (11732532_at) / Fold change /veh JSRP1 (11732532_at) / RFU KRTAP10-11 (11738290_x_at) / Fold change /veh KRTAP10-11 (11738290_x_at) / RFU MYO3A (11730013_a_at) / Fold change /veh MYO3A (11730013_a_at) / RFU EBF3 (11725865_a_at) / Fold change /veh EBF3 (11725865_a_at) / RFU CAMK2N1 (11719241_x_at) / Fold change /veh CAMK2N1 (11719241_x_at) / RFU C5orf56 (11738088_a_at) / Fold change /veh C5orf56 (11738088_a_at) / RFU OLFML3 (11715873_a_at) / Fold change /veh OLFML3 (11715873_a_at) / RFU LOC100653217 /// NTM (11731650_a_at) / Fold change /veh LOC100653217 /// NTM (11731650_a_at) / RFU MAPK11 (11762145_a_at) / Fold change /veh MAPK11 (11762145_a_at) / RFU FIZ1 (11724087_x_at) / Fold change /veh FIZ1 (11724087_x_at) / RFU OASL (11726364_x_at) / Fold change /veh OASL (11726364_x_at) / RFU SOX15 (11748057_x_at) / Fold change /veh SOX15 (11748057_x_at) / RFU CD79A (11719716_a_at) / Fold change /veh CD79A (11719716_a_at) / RFU HIST1H1D (11736915_at) / Fold change /veh HIST1H1D (11736915_at) / RFU CASKIN2 (11723855_a_at) / Fold change /veh CASKIN2 (11723855_a_at) / RFU LOC730098 (11760151_x_at) / Fold change /veh LOC730098 (11760151_x_at) / RFU OR4N2 (11742367_at) / Fold change /veh OR4N2 (11742367_at) / RFU PRRT2 (11749266_a_at) / Fold change /veh PRRT2 (11749266_a_at) / RFU SNX32 (11753110_a_at) / Fold change /veh SNX32 (11753110_a_at) / RFU CDHR5 (11726645_a_at) / Fold change /veh CDHR5 (11726645_a_at) / RFU RCAN1 (11760418_a_at) / Fold change /veh RCAN1 (11760418_a_at) / RFU FAM167A (11723789_a_at) / Fold change /veh FAM167A (11723789_a_at) / RFU FAM26E (11764081_at) / Fold change /veh FAM26E (11764081_at) / RFU ISYNA1 (11749810_s_at) / Fold change /veh ISYNA1 (11749810_s_at) / RFU ACY1 (11761880_at) / Fold change /veh ACY1 (11761880_at) / RFU 11764098_at / Fold change /veh 11764098_at / RFU SAMD14 (11745864_x_at) / Fold change /veh SAMD14 (11745864_x_at) / RFU NPB (11741838_a_at) / Fold change /veh NPB (11741838_a_at) / RFU TMPRSS6 (11731388_a_at) / Fold change /veh TMPRSS6 (11731388_a_at) / RFU KRTAP10-2 (11738614_at) / Fold change /veh KRTAP10-2 (11738614_at) / RFU ARHGAP8 /// PRR5-ARHGAP8 (11727945_x_at) / Fold change /veh ARHGAP8 /// PRR5-ARHGAP8 (11727945_x_at) / RFU KRTAP5-7 /// NADSYN1 (11734609_at) / Fold change /veh KRTAP5-7 /// NADSYN1 (11734609_at) / RFU RASL12 (11751679_a_at) / Fold change /veh RASL12 (11751679_a_at) / RFU CDKN2B (11736163_a_at) / Fold change /veh CDKN2B (11736163_a_at) / RFU PRF1 (11729649_at) / Fold change /veh PRF1 (11729649_at) / RFU, ZNF638 /// ZNF638-IT1 / Fold change vs veh, ZNF638 /// ZNF638-IT1 / RFU, PANK3 / Fold change vs veh, PANK3 / RFU, SH3YL1 / Fold change vs veh, SH3YL1 / RFU, ZEB2 / Fold change vs veh, ZEB2 / RFU, NRIP1 / Fold change vs veh, NRIP1 / RFU, PTTG1IP / Fold change vs veh, PTTG1IP / RFU, CAPN2 / Fold change vs veh, CAPN2 / RFU, MED14 / Fold change vs veh, MED14 / RFU, SNORA58 / Fold change vs veh, SNORA58 / RFU, C1orf63 / Fold change vs veh, C1orf63 / RFU, LRRFIP1 / Fold change vs veh, LRRFIP1 / RFU, NDUFAF7 / Fold change vs veh, NDUFAF7 / RFU, SLC12A2 / Fold change vs veh, SLC12A2 / RFU, IBTK / Fold change vs veh, IBTK / RFU, ESF1 / Fold change vs veh, ESF1 / Fold change vs veh, TMEM50B / RFU, TAOK1 / Fold change vs veh, TAOK1 / RFU, ACBD3 / Fold change vs veh, ACBD3 / RFU, TMA16 / Fold change vs veh, TMA16 / RFU, RWDD3 / Fold change vs veh, RWDD3 / RFU, BCAT1 / Fold change vs veh, BCAT1 / RFU, EDEM3 / Fold change vs veh, EDEM3 / RFU, TMEM33 / Fold change vs veh, TMEM33 / RFU, WDR75 / Fold change vs veh, WDR75 / RFU, AHCTF1 / Fold change vs veh, AHCTF1 / RFU, TFRC / Fold change vs veh, TFRC / RFU, ZDHHC17 / Fold change vs veh, ZDHHC17 / RFU, NOM1 / Fold change vs veh, NOM1 / RFU, ARL8B / Fold change vs veh, ARL8B / RFU, ZBTB11 / Fold change vs veh, ZBTB11 / RFU, TAMM41 / Fold change vs veh, TAMM41 / RFU, KIAA1704 /// LOC100996395 / Fold change vs veh, KIAA1704 /// LOC100996395 / RFU, ING1 / Fold change vs veh, ING1 / RFU, TRMT61B / Fold change vs veh, TRMT61B / RFU, FUBP3 / Fold change vs veh, FUBP3 / RFU, TP53 / Fold change vs veh, TP53 / RFU, TNKS2 / Fold change vs veh, TNKS2 / RFU, ZFP14 / Fold change vs veh, ZFP14 / RFU, ACTR2 / Fold change vs veh, ACTR2 / RFU, PPP3R1 / Fold change vs veh, PPP3R1 / RFU, PIK3R1 / Fold change vs veh, PIK3R1 / RFU, HNRNPA1 / Fold change vs veh, HNRNPA1 / RFU, RNF170 / Fold change vs veh, RNF170 / RFU, ZNF28 / Fold change vs veh, ZNF28 / RFU, RNGTT / Fold change vs veh, RNGTT / RFU, OGT / Fold change vs veh, OGT / RFU, BRD1 / Fold change vs veh, BRD1 / RFU, MARS / Fold change vs veh, MARS / RFU, ZNF655 / Fold change vs veh, ZNF655 / RFU, FAHD1 / Fold change vs veh, FAHD1 / RFU, BDP1 / Fold change vs veh, BDP1 / RFU, LRRCC1 / Fold change vs veh, LRRCC1 / RFU, ARID1A / Fold change vs veh, ARID1A / RFU, ZNF146 / Fold change vs veh, ZNF146 / RFU, ZNF330 / Fold change vs veh, ZNF330 / RFU, GPN3 / Fold change vs veh, GPN3 / RFU, C9orf123 / Fold change vs veh, C9orf123 / RFU, N4BP2L2 / Fold change vs veh, N4BP2L2 / RFU, ARFIP1 / Fold change vs veh, ARFIP1 / RFU, FAM179B / Fold change vs veh, FAM179B / RFU, BCL10 / Fold change vs veh, BCL10 / RFU, UHRF1BP1L / Fold change vs veh, UHRF1BP1L / RFU, BET1 / Fold change vs veh, BET1 / RFU, CNOT2 / Fold change vs veh, CNOT2 / RFU, ZNF268 / Fold change vs veh, ZNF268 / Fold change vs veh, ZNF507 / RFU, DGCR2 / Fold change vs veh, DGCR2 / RFU, WDSUB1 / Fold change vs veh, WDSUB1 / Fold change vs veh, HSP90B1 /// MIR3652 / RFU, ADSS / Fold change vs veh, ADSS / RFU, GK / Fold change vs veh, GK / RFU, ZNF148 / Fold change vs veh, ZNF148 / RFU, TAF9 / Fold change vs veh, TAF9 / RFU, SLC1A5 / Fold change vs veh, SLC1A5 / RFU, SLMO2 / Fold change vs veh, SLMO2 / RFU, ABCC4 / Fold change vs veh, ABCC4 / RFU, LOC101060439 /// RAP1B / Fold change vs veh, LOC101060439 /// RAP1B / RFU, RFX7 / Fold change vs veh, RFX7 / RFU, GTPBP10 / Fold change vs veh, GTPBP10 / RFU, CNEP1R1 / Fold change vs veh, CNEP1R1 / RFU, BIVM-ERCC5 /// ERCC5 / Fold change vs veh, BIVM-ERCC5 /// ERCC5 / RFU, ILF3 / Fold change vs veh, ILF3 / RFU 11762660_at / Fold change /veh 11762660_at / RFU VCAN (11757783_s_at) / Fold change /veh VCAN (11757783_s_at) / RFU DDX43 (11728927_at) / Fold change /veh DDX43 (11728927_at) / RFU KRT8 (11758188_x_at) / Fold change /veh KRT8 (11758188_x_at) / RFU NKD1 (11759106_at) / Fold change /veh NKD1 (11759106_at) / RFU SRD5A1 (11742802_a_at) / Fold change /veh SRD5A1 (11742802_a_at) / RFU TPSAB1 /// TPSB2 (11721975_s_at) / Fold change /veh TPSAB1 /// TPSB2 (11721975_s_at) / RFU GSTM3 (11746129_a_at) / Fold change /veh GSTM3 (11746129_a_at) / RFU IL23R (11737362_x_at) / Fold change /veh IL23R (11737362_x_at) / RFU TMEM51 (11727254_a_at) / Fold change /veh TMEM51 (11727254_a_at) / RFU PIWIL2 (11732686_x_at) / Fold change /veh PIWIL2 (11732686_x_at) / RFU ORM1 (11744905_x_at) / Fold change /veh ORM1 (11744905_x_at) / RFU CCDC152 (11743942_at) / Fold change /veh CCDC152 (11743942_at) / RFU ECM1 (11717891_a_at) / Fold change /veh ECM1 (11717891_a_at) / RFU IL23R (11748794_a_at) / Fold change /veh IL23R (11748794_a_at) / RFU TNFAIP8L3 (11732012_x_at) / Fold change /veh TNFAIP8L3 (11732012_x_at) / RFU MBOAT4 (11741988_at) / Fold change /veh MBOAT4 (11741988_at) / RFU 11764193_at / Fold change /veh 11764193_at / RFU TMEM53 (11763286_at) / Fold change /veh TMEM53 (11763286_at) / RFU MAGEB2 (11727129_at) / Fold change /veh MAGEB2 (11727129_at) / RFU TMEM200A (11744735_a_at) / Fold change /veh TMEM200A (11744735_a_at) / RFU CCDC152 (11751479_a_at) / Fold change /veh CCDC152 (11751479_a_at) / RFU FAM211A (11726209_a_at) / Fold change /veh FAM211A (11726209_a_at) / RFU RGS16 (11746705_a_at) / Fold change /veh RGS16 (11746705_a_at) / RFU VCAN (11755009_s_at) / Fold change /veh VCAN (11755009_s_at) / RFU RHOB (11743442_s_at) / Fold change /veh RHOB (11743442_s_at) / RFU RGS16 (11720943_a_at) / Fold change /veh RGS16 (11720943_a_at) / RFU RGS16 (11720944_at) / Fold change /veh RGS16 (11720944_at) / RFU, VPS4B / Fold change vs veh, VPS4B / RFU, CREB1 / Fold change vs veh, CREB1 / RFU, DNAJC13 / Fold change vs veh, DNAJC13 / RFU, GNAQ / Fold change vs veh, GNAQ / RFU, CDK5R1 / Fold change vs veh, CDK5R1 / RFU, ZRANB3 / Fold change vs veh, ZRANB3 / RFU, CUL4A / Fold change vs veh, CUL4A / RFU, CCNY / Fold change vs veh, CCNY / RFU, UFL1 / Fold change vs veh, UFL1 / RFU, COG3 / Fold change vs veh, COG3 / RFU, DIAPH2 / Fold change vs veh, DIAPH2 / RFU, SKA2 / Fold change vs veh, SKA2 / RFU, AFF3 / Fold change vs veh, AFF3 / RFU, LMF1 / Fold change vs veh, LMF1 / RFU, IPO11 / Fold change vs veh, IPO11 / RFU, DFFB / Fold change vs veh, DFFB / RFU, FOXP1 / Fold change vs veh, FOXP1 / RFU, CARD8 / Fold change vs veh, CARD8 / RFU, STRN3 / Fold change vs veh, STRN3 / RFU, ADK / Fold change vs veh, ADK / RFU, RASSF2 / Fold change vs veh, RASSF2 / RFU, WIPF1 / Fold change vs veh, WIPF1 / RFU, LARP1B / Fold change vs veh, LARP1B / RFU, RASA1 / Fold change vs veh, RASA1 / RFU, RB1 / Fold change vs veh, RB1 / RFU, PPFIA1 / Fold change vs veh, PPFIA1 / RFU, MAT2A / Fold change vs veh, MAT2A / RFU, CCT5 / Fold change vs veh, CCT5 / RFU, WDR92 / Fold change vs veh, WDR92 / RFU, CUX1 / Fold change vs veh, CUX1 / RFU, TTC7A / Fold change vs veh, TTC7A / RFU, TMEM135 / Fold change vs veh, TMEM135 / RFU, DEPTOR / Fold change vs veh, DEPTOR / RFU, CPM / Fold change vs veh, CPM / RFU, DNAJB6 / Fold change vs veh, DNAJB6 / RFU, CACNA2D3 / Fold change vs veh, CACNA2D3 / RFU, DTX4 / Fold change vs veh, DTX4 / RFU, TFCP2 / Fold change vs veh, TFCP2 / RFU, GMCL1 /// GMCL1P1 / Fold change vs veh, GMCL1 /// GMCL1P1 / RFU, AEBP2 / Fold change vs veh, AEBP2 / RFU, SNHG1 /// SNORD22 /// SNORD25 /// SNORD26 /// SNORD27 /// SNORD28 /// SNORD29 /// SNORD31 / Fold change vs veh, SNHG1 /// SNORD22 /// SNORD25 /// SNORD26 /// SNORD27 /// SNORD28 /// SNORD29 /// SNORD31 / Fold change (Aza/veh), C12orf56 (ProbeSet 11735607_a_at) / Fold change (ACY-1035/veh), C12orf56 (ProbeSet 11735607_a_at) / Fold change (Aza/veh), FGFR1OP (ProbeSet 11751329_s_at) / Fold change (ACY-1035/veh), FGFR1OP (ProbeSet 11751329_s_at) / Fold change (Aza/veh), VPS36 (ProbeSet 11739960_a_at) / Fold change (ACY-1035/veh), VPS36 (ProbeSet 11739960_a_at) / RFU SYPL1 (11715823_x_at) / Fold change /veh SYPL1 (11715823_x_at) / RFU IGFBP7 (11715501_s_at) / Fold change /veh IGFBP7 (11715501_s_at) / RFU REEP3 (11722064_at) / Fold change /veh REEP3 (11722064_at) / RFU IGLL1 (11728026_x_at) / Fold change /veh IGLL1 (11728026_x_at): dose or concentration left out as unconfirmed
Details: ProbeSet 11748670_a_at; LIST B

Nc1ncn([C@@H]2O[C@H](CO)[C@@H](O)[C@H]2O)c(=O)n1 [azacitidine]
RFU, PIK3R1: 80.66 RFU

Reference: PMC5218480 (PLoS ONE, 2017)
